The numbers were not newly measured in patent publication US20050084550A1, “Weight reduction and maintenance method for animals” (International Flora Technologies, priority 2001, published 2005), which cites them from elsewhere.

Series [1] concerns food intake in chickens. The settings on record: appetite suppressant.
The subject of series [2] is food intake in rats. The settings on record: appetite suppressant.
For series [3], the system named is food intake in mice. The settings on record: appetite suppressant.

As for `CO[C@H]1[C@@H](OC)C[C@@H](O[C@@H]2O[C@H](CO)[C@@H](O)[C@H](O)[C@H]2O)/C(=C\C#N)[C@@H]1O` [simmondsin], the food intake entry in series [1], in series [2] and in series [3] was “reduces food intake” in each case. For the same compound, for the setting “hexane”, the solubility in hexane result is recorded as “not soluble”. The “solubility in jojoba oil” value (jojoba oil) is “not soluble”.
